Assay results from patent US20150119352A1, “DINUCELOSIDE POLYPHOSPHATES FOR THE TREATMENT OF PAIN” (GlobalAcorn Ltd., priority 2012, published 2015).
Read-outs that look alike come from different tables or passages of the source.

What was measured:
P2X3 receptors = molecular target: T1, P2X3 receptors (Homo sapiens, UniProt P56373); conditions: Jarvis et al, 2002; cited from earlier work
T1 sequence (P56373 1-397): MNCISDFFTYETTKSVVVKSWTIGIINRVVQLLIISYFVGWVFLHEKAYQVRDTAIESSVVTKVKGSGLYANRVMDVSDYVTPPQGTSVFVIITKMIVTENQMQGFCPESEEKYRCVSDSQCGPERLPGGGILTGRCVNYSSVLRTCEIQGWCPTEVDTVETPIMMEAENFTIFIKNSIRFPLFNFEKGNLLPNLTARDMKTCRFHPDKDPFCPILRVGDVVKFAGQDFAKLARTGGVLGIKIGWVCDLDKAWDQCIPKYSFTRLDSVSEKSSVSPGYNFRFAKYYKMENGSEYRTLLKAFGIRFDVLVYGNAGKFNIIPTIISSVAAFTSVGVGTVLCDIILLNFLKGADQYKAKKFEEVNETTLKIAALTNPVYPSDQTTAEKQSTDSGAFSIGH

male Wistar rats = assay: Formalin test (nociceptive behaviour, spontaneous jerking of injected paw); type: in vivo, rat; conditions: for IC50: Rattus norvegicus, Table 1, concentration; for IC50 First phase (acute pain), calculated / IC50 Second phase (chronic pain), calculated: Table 1, assuming 40 g rat body weight; for First phase (acute pain) / First phase (acute pain) (μg/kg) / Second phase (chronic pain) / Second phase (chronic pain) (μg/kg): Table 2; for First phase (acute pain) Human (70 kg) nmol / Second phase (chronic pain) Human (70 kg) nmol: Table 2, estimated indicative dose for 70 kg human; for First phase (acute pain) Rat (40 g) nmol / Second phase (chronic pain) Rat (40 g) nmol: Table 2, per 40 g rat
Procedure: FIG. 6. Effects of subcutaneous Ap4A analogues on pain responses induced by intraplantar (right hindpaw) formalin injection. Rats were subcutaneously injected with formalin solution alone (0.5%, 50 μL, control) or co-injected with the formalin solution and solutions with AppCH2ppA (1 μM-100 μM, 100 μL) or AppNHppA (0.1 μM-100 μM, 100 μL). Age-matched control animals were injected with saline. A. Time-course of the effects of subcutaneous AppCH2ppA (a) and AppNHppA (b) on the number of the spontaneous jerkings of the injected paw. B. Bar-graphs of the effects of AppCH2ppA (a, b) and AppNHppA (c, d) on the integral number of spontaneous jerkings. Measurements were made during the acute phase (0-6 min) and tonic phase (7-45 min) of the formalin response. C. Dose-response curves for AppCH2ppA (a) and AppNHppA (b) during tonic and acute phases.
The formalin test experiments were performed on 21-day old male Wistar rats, weighing 40±5 g according to the method described previously (Simonetti et al, 2006; Yegutkin et al, 2008). Briefly, animal was acclimated to an acrylic observation chamber for at least 1 h before the injection of formalin ([…] of 0.5% solution in 0.9% saline) into the dorsal surface of the right hindpaw. Age-matched control animals were injected with saline (100 μL). Immediately after the injection, each animal was returned to the observation chamber and its behavioural characteristics were recorded for 45 min. We noticed consistently observed type of response: spontaneous jerking of the injected paw. The number of jerks was measured for each […], using self-developed computer software.
The effects of AppNHppA and AppCH2ppA were examined on the behavioral reactions of rats in inflammatory pain models. Injection of diluted formalin into a rodent's hindpaw produces a biphasic nociceptive response consisting of immediate (acute phase) and tonic (inflammatory phase) components. The first phase of a formalin response (i.e. 0-5 min after injection) involves a direct effect of formalin on the pain receptors, while changes in animal behavior during the second tonic phase (i.e. 7-45 min after injection) are caused by hyperalgesia that develops due to the sensitization of nociceptive and spinal neurons via mechanisms that are triggered by repetitive stimulation during the first phase.

[1] = read-out: IC50 First phase (acute pain)
[2] = read-out: IC50 Second phase (chronic pain)

Row | Compound | concentration range of binding to P2X3 receptors (P2X3 receptors) | IC50 (male Wistar rats; [1]) [nM] | IC50 (male Wistar rats; [2]) [nM] | IC50 First phase (acute pain), calculated (male Wistar rats) [nmol/kg] | IC50 Second phase (chronic pain), calculated (male Wistar rats) [nmol/kg] | First phase (acute pain) (male Wistar rats) [nmol/kg] | First phase (acute pain) (μg/kg) (male Wistar rats) | Second phase (chronic pain) (male Wistar rats) [nmol/kg] | Second phase (chronic pain) (μg/kg) (male Wistar rats) | First phase (acute pain) Human (70 kg) nmol (male Wistar rats) [nmol] | Second phase (chronic pain) Human (70 kg) nmol (male Wistar rats) [nmol] | First phase (acute pain) Rat (40 g) nmol (male Wistar rats) [nmol] | Second phase (chronic pain) Rat (40 g) nmol (male Wistar rats) [nmol]
1 | O=C(O)c1cc(C(=O)O)c(C(=O)N(Cc2cccc(Oc3ccccc3)c2)[C@H]2CCCc3ccccc32)cc1C(=O)O [A-317491] | within a micromolar range | – | – | – | – | – | – | – | – | – | – | – | –
2 | Nc1ncnc2c1ncn2[C@@H](CO)O[C@@H](CO)COP(=O)(O)OP(=O)(O)CP(=O)(O)OP(=O)(O)OC[C@H](CO)O[C@H](CO)n1cnc2c(N)ncnc21 [AdiolppCH2ppAdiol] | – | ~50000 | 84 ± 140 | ~125 | 0.21 ± 0.35 | ~125 | (104) μg/kg | 0.21 ± 0.35 | (0.175) μg/kg | 8750 | 14.7 | 5 | 0.0084
3 | Nc1nc2c(ncn2[C@@H]2O[C@H](COP(=O)(O)OP(=O)(O)CP(=O)(O)OP(=O)(O)OC[C@H]3O[C@@H](n4cnc5c(N)ncnc54)C(O)C3O)C(O)[C@@H]2O)c(=O)[nH]1 (stereo partly shown) [AppCH2ppG] | – | > 100000 | 180 ± 120 | >250 | 0.45 ± 0.30 | >250 | (209) μg/kg | 0.45 ± 0.30 | (0.376) μg/kg | 17500 | 31.5 | 10 | 0.018
